Test system: HEK-293T
Assay: Antiproliferative activity against human HEK293T cells assessed as inhibition of cell growth
Format: functional, cell-based
Conditions: not given

Compound | IC50 [nM]
CCCCCCCC/C=C/CCCCCCCC(=O)N[C@H](COP(=O)(O)O)Cc1ccc(OCc2ccccc2)cc1 | 130

Target: T1, Lysophosphatidic acid receptor 1 (Homo sapiens, UniProt Q92633)
Assay: Antagonist activity at LPA1 receptor (unknown origin) assessed as inhibition constant
Conditions: not given

T1 sequence (Q92633 whole entry): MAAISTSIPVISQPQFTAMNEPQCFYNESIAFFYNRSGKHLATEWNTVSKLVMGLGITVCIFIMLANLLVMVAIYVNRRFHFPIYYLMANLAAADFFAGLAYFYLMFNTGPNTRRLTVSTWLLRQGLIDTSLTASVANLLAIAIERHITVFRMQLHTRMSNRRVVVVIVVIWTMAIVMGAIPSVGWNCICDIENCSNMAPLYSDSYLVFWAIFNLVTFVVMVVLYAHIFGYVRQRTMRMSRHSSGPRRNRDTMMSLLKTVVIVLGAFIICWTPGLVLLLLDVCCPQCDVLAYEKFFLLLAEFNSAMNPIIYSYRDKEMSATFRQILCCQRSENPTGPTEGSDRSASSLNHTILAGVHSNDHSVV

Ki [nM] | Compound
6420 | CC1=C(NC(=O)OC(C)c2ccccc2Cl)C(c2ccc(CSCCC(=O)O)cc2)ON1 (stereo not given)

Target: T1, Lysophosphatidic acid receptor 1
Assay: Antagonist activity at human LPA1 receptor expressed in CHO cells
Format: cell-based
Conditions: not given

EC50 [nM] | Compound
< 50 | CC(OC(=O)Nc1c(-c2ccc(-c3ccc(C4(C(=O)O)CC4)cc3)cc2)oc2cnccc12)c1ccccc1Cl (stereo not given)
< 50 | Cc1noc(-c2ccc(-c3ccc(CC(=O)O)c4c3CCC4)cc2)c1NC(=O)OC(C)c1ccccc1Cl (stereo not given)
< 50 | CC(OC(=O)Nc1c(-c2ccc(-c3ccc(C4(C(=O)O)CC4)cc3)cc2)oc2cnccc12)c1ccccc1 (stereo not given)

Target: T2, Lysophosphatidic acid receptor 3 (Homo sapiens, UniProt Q9UBY5)
T2 sequence (Q9UBY5 whole entry): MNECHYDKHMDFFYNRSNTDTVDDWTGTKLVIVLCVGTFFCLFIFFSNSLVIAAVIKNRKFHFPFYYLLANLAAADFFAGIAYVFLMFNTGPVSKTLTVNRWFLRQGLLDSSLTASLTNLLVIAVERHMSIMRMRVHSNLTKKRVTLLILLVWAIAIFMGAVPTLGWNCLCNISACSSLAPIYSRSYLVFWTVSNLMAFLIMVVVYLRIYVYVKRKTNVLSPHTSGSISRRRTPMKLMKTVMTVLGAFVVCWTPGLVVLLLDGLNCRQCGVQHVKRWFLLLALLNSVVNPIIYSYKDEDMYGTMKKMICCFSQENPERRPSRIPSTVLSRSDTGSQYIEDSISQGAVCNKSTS
Assay: Antagonist activity at human LPA3 receptor
Format: cell-based, CHO
Conditions: not given

EC50 [nM] | Compound
< 50 | CC(OC(=O)Nc1c(-c2ccc(-c3ccc(C4(C(=O)O)CC4)cc3)cc2)oc2cnccc12)c1ccccc1Cl (stereo not given)
< 50 | Cc1noc(-c2ccc(-c3ccc(CC(=O)O)c4c3CCC4)cc2)c1NC(=O)OC(C)c1ccccc1Cl (stereo not given)
< 50 | CC(OC(=O)Nc1c(-c2ccc(-c3ccc(C4(C(=O)O)CC4)cc3)cc2)oc2cnccc12)c1ccccc1 (stereo not given)

Target: T3, Lysophosphatidic acid receptor 5 (Homo sapiens, UniProt Q9H1C0)
T3 sequence (Q9H1C0 whole entry): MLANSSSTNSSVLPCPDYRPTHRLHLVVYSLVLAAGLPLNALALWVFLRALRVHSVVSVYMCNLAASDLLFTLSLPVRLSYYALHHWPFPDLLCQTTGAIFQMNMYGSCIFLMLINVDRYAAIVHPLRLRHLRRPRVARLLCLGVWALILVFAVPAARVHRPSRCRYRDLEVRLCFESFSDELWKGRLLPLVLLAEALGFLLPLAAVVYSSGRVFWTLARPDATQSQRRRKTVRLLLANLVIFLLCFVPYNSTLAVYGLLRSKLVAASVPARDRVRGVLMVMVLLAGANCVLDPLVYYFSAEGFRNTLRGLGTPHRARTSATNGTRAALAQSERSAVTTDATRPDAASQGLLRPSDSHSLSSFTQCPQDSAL
Assay: Antagonist activity at human LPA5 receptor expressed in CHO cells assessed as inhibition of LPA stimulated calcium release incubated for 20 mins followed by […] and measured for 90 seconds
Format: cell-based
Conditions: not given

IC50 [nM] | Compound
2900 | Cc1c(COC(C)(C)C(=O)NCc2ccc(C(=O)O)cc2)nn(-c2ccc(Cl)cc2Cl)c1-c1ccc(Cl)cc1

Target: T3, Lysophosphatidic acid receptor 5
Assay: Antagonist activity at human LPA5 receptor by FLIPR analysis
Conditions: not given

IC50 [nM] | Compound
1300 | Cc1c(COC(C)(C)C(=O)NCc2ccc(C(=O)O)cc2)nn(-c2ccccc2Cl)c1-c1ccc(C(F)(F)F)cc1
1300 | Cc1c(COC(C)(C)C(=O)NCc2ccc(C(=O)O)cc2)nn(-c2ccc(Cl)cc2Cl)c1-c1ccc(Cl)cc1
30 | Cc1c(COC(C)(C)C(=O)NCc2ccc(C(=O)O)cc2)nn(-c2ccc(Cl)cc2Cl)c1-c1ccc(C(F)(F)F)cc1

Target: T1, Lysophosphatidic acid receptor 1
Assay: Antagonist activity at human LPA1 receptor
Conditions: not given

IC50 [nM] | Compound
100 | CSc1ccc(C(=O)NC2(C(=O)O)Cc3ccccc3C2)cc1OCCc1cccc(C)c1
100 | COc1ccc(C(=O)NC2(C(=O)O)CCCCCC2)cc1OCCc1cc(Cl)ccc1F
100 | COc1ccc(C(=O)NC2(C(=O)O)CCC(C)C2)cc1OCCc1cccc(C)c1 (stereo not given)
110 | COc1cc(C(=O)N(CCCc2ccccc2)Cc2ccc(Oc3ccccc3C(=O)O)cc2)cc(OC)c1OC
100 | COc1ccc(C(=O)NC2(C(=O)O)CCCCCC2)cc1OCCc1cccc(Cl)c1
100 | CCC1CC1(NC(=O)c1ccc(OC)c(OCCc2cccc(C)c2)c1)C(=O)O (stereo not given)
100 | COc1ccc(C(=O)NC2(C(=O)O)CC3CCC(C3)C2)cc1OCCc1cccc(C)c1 (stereo not given)

Target: T4, Lysophosphatidic acid receptor 2 (Homo sapiens, UniProt Q9HBW0)
T4 sequence (Q9HBW0 whole entry): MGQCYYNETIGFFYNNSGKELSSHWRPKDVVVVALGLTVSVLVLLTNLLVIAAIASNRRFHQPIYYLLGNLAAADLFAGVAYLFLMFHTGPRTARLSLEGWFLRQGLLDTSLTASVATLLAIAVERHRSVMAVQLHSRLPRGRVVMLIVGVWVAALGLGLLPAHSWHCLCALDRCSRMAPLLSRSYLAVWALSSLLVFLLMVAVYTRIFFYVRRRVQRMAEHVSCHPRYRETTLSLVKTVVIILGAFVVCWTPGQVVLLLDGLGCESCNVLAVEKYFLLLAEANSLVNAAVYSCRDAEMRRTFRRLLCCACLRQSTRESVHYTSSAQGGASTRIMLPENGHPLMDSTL
Assay: Inhibition of LPA2 receptor (unknown origin)
Conditions: not given

Compound | IC50 [nM]
O=C(Nc1nc2ccccc2[nH]1)C1CC1c1ccccc1Cl (stereo not given) | 10
O=C(Nc1nc2cc(Cl)ccc2[nH]1)C1CC1c1ccccc1 (stereo not given) | 10
O=C(Nc1nc2ccccc2[nH]1)C1CC1c1ccccc1 (stereo not given) | < 10

Further lines, results first:

IC50 [nM] | Compound
10 | O=C(Nc1nc2cc(C(F)(F)F)ccc2[nH]1)C1CC1c1ccccc1 (stereo not given)
10 | Cc1cccc(C2CC2C(=O)Nc2nc3ccccc3[nH]2)c1 (stereo not given)

Target: T4, Lysophosphatidic acid receptor 2
Assay: Antagonist activity at LPA2 receptor (unknown origin)
Conditions: not given

IC50 [nM] | Compound
< 500 | Fc1ccc(CN2CCCCC2c2cc3ccccc3[nH]2)cc1 (stereo not given)
< 500 | Cc1cccc(CN2CCCCC2c2cc3ccccc3[nH]2)c1 (stereo not given)
< 500 | Cc1cccc(CN2C(C)CCCC2c2cc3cc(F)ccc3[nH]2)c1 (stereo not given)

Target: T3, Lysophosphatidic acid receptor 5
Assay: Antagonist activity at human LPA5 receptor assessed as inhibition of […] cAMP accumulation incubated for 20 mins
Conditions: not given

IC50 [nM] | Compound
38 | COc1cc2c(C(=O)N3CCCCC3)cn(-c3noc4ccc(C)cc34)c(=O)c2cc1OC

Same assay, conditions: filed as antagonist

IC50 [nM] | Compound
38 | CCN1CCCc2ccc(-n3cc(C(=O)N4CCCCC4)c4cc(OC)c(OC)cc4c3=O)cc21

Target: T4, Lysophosphatidic acid receptor 2
Assay: Antagonist activity at human LPA2 receptor assessed as inhibition of LPA-induced calcium release
Conditions: not given

IC50 [nM] | Compound
< 1000 | Cc1ccc(-c2n[nH]c3c2C(O)(C(F)(F)F)CC(=O)N3)cc1 (stereo not given)
< 1000 | O=C1CC(O)(C(F)(F)F)c2c(-c3cccc(Br)c3)n[nH]c2N1 (stereo not given)
< 1000 | O=C1CC(O)(C(F)(F)F)c2c(-c3ccccc3)n[nH]c2N1 (stereo not given)
< 1000 | O=C1CC(O)(C(F)(F)F)c2c(-c3ccncc3)n[nH]c2N1 (stereo not given)
< 1000 | O=C1CC(O)(C(F)(F)F)c2c(-c3ccc(F)cc3)n[nH]c2N1 (stereo not given)
< 1000 | COc1cccc(-c2n[nH]c3c2C(O)(C(F)(F)F)CC(=O)N3)c1 (stereo not given)
< 1000 | O=C1CC(O)(C(F)(F)F)c2c(-c3cccs3)n[nH]c2N1 (stereo not given)
< 1000 | COc1ccc(-c2n[nH]c3c2C(O)(C(F)(F)F)CC(=O)N3)cc1 (stereo not given)
< 1000 | O=C1CC(O)(C(F)(F)F)c2c(-c3cccc(C(F)(F)F)c3)n[nH]c2N1 (stereo not given)
< 1000 | O=C1CC(O)(C(F)(F)F)c2c(-c3cccc(Cl)c3)n[nH]c2N1 (stereo not given)
< 1000 | O=C1CC(O)(C(F)(F)F)c2c(-c3cccc(F)c3)n[nH]c2N1 (stereo not given)
